“And” between values parts separate entries of the source, which are not always exact repeats. Equal entries are not always repeated.
Assays:
Assay type in all cases: cell-based, human
Donor 3 GMA T-Cell Lines = experiment: ATP proliferation assay (CellTiter Glo), Donor 3 GMA T-cell lines, incl. reactivity to non-canonical GA peptides
Donor 3 COP T-Cell Lines = experiment: ATP proliferation assay (CellTiter Glo), Donor 3 COP T-cell lines, incl. reactivity to non-canonical GA peptides; details: for Non-Canonical Peptide Non-Reactivity: proliferation <2 times no antigen control
Donor 4 COP T-Cell Lines = experiment: ATP proliferation assay (CellTiter Glo), Donor 4 COP T-cell lines, incl. reactivity to non-canonical GA peptides; details: for Non-Canonical Peptide Non-Reactivity: proliferation <2 times no antigen control; for Proliferation (luminescent ATP assay), Mean: T-cell line 205-1F4, Day 71, autologous B-LCL

Substance: poly (Glu-Ala-Tyr; 1:1:1) [GAT 111]
- Proliferation (luminescent ATP assay), Mean (Donor 3 GMA T-Cell Lines; T-cell line 165-F10G, 10 μg/mL antigen, Day 50 of culturing, No Antigen Value 3752): 2876 RLU
- Proliferation (luminescent ATP assay), Mean (Donor 3 GMA T-Cell Lines; T-cell line 165-F10G, 10 μg/mL antigen, autologous B-LCL): 1054 RLU
- Proliferation (luminescent ATP assay), Mean (Donor 3 GMA T-Cell Lines; T-cell line 165-F10G, 30 μg/mL antigen, Day 50 of culturing, No Antigen Value 3752): 2299 RLU
- Proliferation (luminescent ATP assay), Mean (Donor 3 GMA T-Cell Lines; T-cell line 165-H11G, 1 μg/mL antigen, Day 50 of culturing, No Antigen Value 1485): 2448 RLU
- Proliferation (luminescent ATP assay), Mean (Donor 3 GMA T-Cell Lines; T-cell line 165-H11G, 1.25 μg/mL antigen, autologous B-LCL): 49 RLU
- Proliferation (luminescent ATP assay), Mean (Donor 3 GMA T-Cell Lines; T-cell line 165-H11G, 2.5 μg/mL antigen, autologous B-LCL): 320 RLU
- Proliferation (luminescent ATP assay), Mean (Donor 3 GMA T-Cell Lines; T-cell line 165-H11G, 3 μg/mL antigen, Day 50 of culturing, No Antigen Value 1485): 2294 RLU
- Proliferation (luminescent ATP assay), Mean (Donor 3 GMA T-Cell Lines; T-cell line 165-H11G, 5 μg/mL antigen, autologous B-LCL): 304 RLU
- Proliferation (luminescent ATP assay), Mean (Donor 3 GMA T-Cell Lines; T-cell line 165-H11G, 10 μg/mL antigen, Day 50 of culturing, No Antigen Value 1485): 2102 RLU
- Proliferation (luminescent ATP assay), Mean (Donor 3 GMA T-Cell Lines; T-cell line 165-H11G, 10 μg/mL antigen, autologous B-LCL): 336 RLU
- Proliferation (luminescent ATP assay), Mean (Donor 3 GMA T-Cell Lines; T-cell line 165-H11G, 30 μg/mL antigen, Day 50 of culturing, No Antigen Value 1485): 1599 RLU
- Non-Canonical Peptide Non-Reactivity (Donor 3 COP T-Cell Lines; 165-C4C): GAT 111
- Non-Canonical Peptide Non-Reactivity (Donor 3 COP T-Cell Lines; 165-C7C): GAT 111
- proliferation response to non-canonical peptides (Donor 3 COP T-Cell Lines; 165-E3C, separate experiment): did not react
- Non-Canonical Peptide Non-Reactivity (Donor 3 COP T-Cell Lines; 165-F3C): GAT 111
- Non-Canonical Peptide Non-Reactivity (Donor 3 COP T-Cell Lines; 165-F6C): GAT 111
- Non-Canonical Peptide Non-Reactivity (Donor 3 COP T-Cell Lines; 165-U3C (so in the source)): GAT 111
- Nonreactive T-Cell Line (Donor 3 COP T-Cell Lines; Donor 3 COP lines, stimulation with the non-canonical GA peptide): 165-C4C (Donor 3) and 165-C7C (Donor 3) and 165-E3C (Donor 3) and 165-F3C (Donor 3) and 165-F6C (Donor 3)
- Proliferation (luminescent ATP assay), Mean (Donor 3 COP T-Cell Lines; T-cell line 165-C4C, 1 μg/mL antigen, Day 66 of culture, 0 μg/mL 1881): 2330
- Proliferation (luminescent ATP assay), Mean (Donor 3 COP T-Cell Lines; T-cell line 165-C4C, 3 μg/mL antigen, Day 66 of culture, 0 μg/mL 1881): 2392
- Proliferation (luminescent ATP assay), Mean (Donor 3 COP T-Cell Lines; T-cell line 165-C4C, 10 μg/mL antigen, Day 66 of culture, 0 μg/mL 1881): 2233
- Proliferation (luminescent ATP assay), Mean (Donor 3 COP T-Cell Lines; T-cell line 165-C7C, 1.25 μg/mL antigen, autologous B-LCL): 273 RLU
- Proliferation (luminescent ATP assay), Mean (Donor 3 COP T-Cell Lines; T-cell line 165-C7C, 2.5 μg/mL antigen, autologous B-LCL): 231 RLU
- Proliferation (luminescent ATP assay), Mean (Donor 3 COP T-Cell Lines; T-cell line 165-C7C, 5 μg/mL antigen, autologous B-LCL): 224 RLU
- Proliferation (luminescent ATP assay), Mean (Donor 3 COP T-Cell Lines; T-cell line 165-C7C, 10 μg/mL antigen, autologous B-LCL): 264 RLU
- Proliferation (luminescent ATP assay), Mean (Donor 3 COP T-Cell Lines; T-cell line 165-F3C, 1 μg/mL antigen, Day 77 of culture, 0 μg/mL 1563): 2387
- Proliferation (luminescent ATP assay), Mean (Donor 3 COP T-Cell Lines; T-cell line 165-F3C, 3 μg/mL antigen, Day 77 of culture, 0 μg/mL 1563): 2269
- Proliferation (luminescent ATP assay), Mean (Donor 3 COP T-Cell Lines; T-cell line 165-F3C, 10 μg/mL antigen, Day 77 of culture, 0 μg/mL 1563): 1772
- Proliferation (luminescent ATP assay), Mean (Donor 3 COP T-Cell Lines; T-cell line 165-F6C, 1.25 μg/mL antigen, Day 76 of culture, No Antigen value 517): 576
- Proliferation (luminescent ATP assay), Mean (Donor 3 COP T-Cell Lines; T-cell line 165-F6C, 2.5 μg/mL antigen, Day 76 of culture, No Antigen value 517): 620
- Proliferation (luminescent ATP assay), Mean (Donor 3 COP T-Cell Lines; T-cell line 165-F6C, 5 μg/mL antigen, Day 76 of culture, No Antigen value 517): 479
- Proliferation (luminescent ATP assay), Mean (Donor 3 COP T-Cell Lines; T-cell line 165-F6C, 10 μg/mL antigen, Day 76 of culture, No Antigen value 517): 411
- Non-Canonical Peptide Non-Reactivity (Donor 4 COP T-Cell Lines; 205-1F4): GAT 111
- Non-Canonical Peptide Non-Reactivity (Donor 4 COP T-Cell Lines; 205-1H3): GAT 111
- reactivity to non-canonical GA peptides (Donor 4 COP T-Cell Lines; 205-1H7, after seven stimulations, 0, 1, 10, 30 μg/mL): not
- Non-Canonical Peptide Non-Reactivity (Donor 4 COP T-Cell Lines; 205-1H7): GAT 111
- Non-Canonical Peptide Non-Reactivity (Donor 4 COP T-Cell Lines; 205-1H11): GAT 111
- Nonreactive T-Cell Line (Donor 4 COP T-Cell Lines; Donor 4 COP lines, stimulation with the non-canonical GA peptide): 205-1F4 (Donor 4) and 205-1H3 (Donor 4) and 205-1H7 (Donor 4) and 205-1H11 (Donor 4)
- Proliferation (luminescent ATP assay), Mean (Donor 4 COP T-Cell Lines; 1 μg/mL antigen): 2002
- Proliferation (luminescent ATP assay), Mean (Donor 4 COP T-Cell Lines; 3 μg/mL antigen): 2163
- Proliferation (luminescent ATP assay), Mean (Donor 4 COP T-Cell Lines; 10 μg/mL antigen): 2275

Reference: US9995734B2, “Human T cell line assay for evaluating the immunologic identity of glatiramer acetate preparations” (Mylan Inc., priority 2013, dated 2018)
